{
  "source": "patent US20230190707A1",
  "about": "“COMPOSITIONS AND METHODS FOR ENHANCING CANCER IMMUNOTHERAPY” (FRED HUTCHINSON CANCER CENTER, priority 2020, published 2023)",
  "key": {"donor T cells": {"system": "donor T cells", "assay": "CFSE adoptive T cell transfer with in vivo splicing modulator treatment", "conditions": "mouse, in vivo", "method": "Splenic T cells were obtained from B6 or CD45.1 donors by CD5 positive selection (Miltenyi Biotec, Cat. 130-049-301), labeled with CellTrace CFSE (ThermoFisher Cat. C34570) at 10 μM, and adoptively transferred by tail vein injection into lethally irradiated B6, Balb/c, or LP/J recipients, with […] labeled donor T cells transferred per recipient. All recipients were irradiated on day −1 prior to adoptive T cell transfer with 7 Gy as a single fraction and continuously received splicing inhibitor drugs or vehicle control at the indicated doses, from day −1 until day of sacrifice, with the initial dose of drug at least 4 hours after lethal irradiation. Indisulam and MS-023 were solubilized for in vivo administration and animals were treated as above. Pladienolide B (Tocris, Cat. 6070) and GEX1A (Cayman Chemicals, Cat. 25136) were both dissolved in vehicle (10% ethanol and 4% Tween-80 in sterile PBS) and administered i.p., with pladienolide B dosed at 10 mg/kg every other day, and GEX1A dosed at 1.25 mg/kg every four days. For in vivo use, EPZ015666 was dissolved in DMSO and solubilized in 0.5% methylcellulose in water to 20 mg/mL; animals were treated daily with 200 mg/kg by oral gavage."}, "[1]": {"assay": "Histologic evaluation of immune-related tissue toxicities", "type": "in vivo, mouse", "conditions": "tumor-bearing mice", "method": "Animal tissues were fixed in 4% paraformaldehyde, decalcified (for bone), dehydrated and paraffin embedded. Blocks were sectioned and stained with hematoxylin and eosin or anti-CD8. Images were acquired using an Axio Observer A1 microscope (Carl Zeiss, Oberkochen, Germany) or scanned using an Aperio AT slide scanner (Leica Biosystems, Buffalo Grove, Ill.). Automated quantification of infiltrating CD8^+ T cells was performed using HALO software (Indica labs, Albuquerque, N. Mex.). Pathologic evaluation of immune-related tissue toxicities was performed in a blinded fashion by one of the authors who is a trained pathologist (Ben Durham, MD)."}, "OT-1 T cells": {"system": "OT-1 T cells", "assay": "LAMP-1 T cell degranulation assay", "type": "cell-based, mouse", "conditions": "higher doses", "method": "OT-1 cells were generated as described for the cytotoxicity assay and incubated with ovalbumin-expressing tumor cell lines (pre-treated overnight with IFNγ 100 U/mL to upregulate cell-surface MHC I) in the presence of DMSO or varying concentrations of splicing modulator drugs as indicated, in the presence of LAMP-1 antibody for 5-6 hours under standard incubator conditions. After the first hour of incubation, BD GolgiPlug™ (brefeldin A) and BD GolgiStop™ (monensin) was added at […] respectively into cells. At the end of incubation, cells were washed and stained for cell surface markers prior to standard flow cytometry."}, "[2]": {"system": "CD8^+ T cell proliferation", "assay": "Mixed leukocyte reaction with BMDCs loaded with lysates of drug-treated MC38 cells", "type": "cell-based, mouse", "conditions": "wild-type BMDCs loaded with lysates of treated MC38 cells; day 5", "method": "RBC lysed bone marrow obtained from the femurs and tibias of C57BL/6 or P2 microglobulin deficient mice (Jackson Laboratories Cat. 2087) were cultured with mouse IL-3 (PeproTech Cat. 213-13) and mouse FLT3 ligand (PeproTech Cat. 250-31L) both at 10 ng/mL each in RPMI+10% FCS for 7 days to generate bone marrow derived dendritic cells. Separately, […] MC38 treated with splicing inhibitors vs. DMSO or expressing chicken ovalbumin were harvested, washed and resuspended in sterile PBS, and subjected to five cycles of rapid freeze-thaw (alternating between 37° C. and dry ice/acetone) to generate a cell lysate. After brief centrifugation at 100×g, the soluble fraction in PBS was added to bone marrow derived DCs and left to incubate overnight for antigen phagocytosis in the presence of LPS (ThermoFisher Cat. 00-4976-93). DCs were subsequently washed three times to remove cell-free lysates and LPS and incubated in a 1:1 ratio with CFSE-labeled B6 splenic T cells (10^5 stimulators with 10^5 responders) as described above. The MLR was analyzed at day 5 by flow cytometry."}, "CD5^+ splenic T cells": {"system": "CD5^+ splenic T cells", "assay": "Anti-CD3/CD28 T cell activation and proliferation (CFSE)", "type": "cell-based, mouse", "method": "Cell lines were grown with half-log10 concentrations of the indicated drug in 4 to 8 technical replicates under standard conditions until the control condition (DMSO or vehicle) was confluent by microscopy. For tumor cell lines, viable cells were quantified via the CellTiter-Glo® assay (Promega Cat. G7573) as per manufacturer instructions. For the ex vivo proliferation of T cells, viable cells were instead quantified via flow cytometry using counting beads. The percentage or number of viable cells with drug treatment was calculated relative to DMSO control (as 100%). […] For absolute cell number, Annexin V+, CD25+, and PD1+ flow cytometry data presented in Figure S4, dose-response models and IC50 values were computed using the R language's dre package (Ritz, C., et al. (2015). Dose-Response Analysis Using R. PLoS One 10, e0146021).\nPlates were coated with 10 μg/mL anti-CD3 (clone 145-2C11, Biolegend Cat. 100302) and 2 μg/mL anti-CD28 (clone 37.51, Biolegend Cat. 102102) in PBS overnight at 4° C. and washed twice with cold PBS prior to use. CFSE-labeled CD5-selected splenic T cells from naïve C57BL/6J mice were obtained identically as for adoptive cell transfer, and 5×10^4 cells incubated with coated plates in the presence of splicing inhibitor drugs at the indicated concentrations, followed by analysis by standard flow cytometry on day 3. Of note, for RNA-seq analyses, T cells were not labeled with CFSE, and underwent activation for 4 days (96 hours) in the presence of various splicing modulator drugs to harmonize experimental conditions with RNA-seq analyses of tumors treated with splicing inhibitors. For the RNA-seq experiments only, T cells in all conditions were also incubated with IL-2 at 50 U/mL to maximize viability and yield."}, "[3]": {"conditions": "mouse, in vivo", "description": "Animals were subcutaneously engrafted on bilateral flanks with tumor cells (MC38 1×10^6, B16-F10 0.5×10^6 and LLC 0.25×10^6 cells unless otherwise specified) on day 0, and treated continuously with splicing inhibitors (MS-023 50 mg/kg i.p., indisulam 25 mg/kg i.v. or vehicle) daily for 5 of 7 weekly days starting from day +3 of tumor challenge. […] Mice were weighed weekly for weight-based drug dosing."}},
  "data": [
    {"smiles": "CC(C)Oc1ccc(-c2c[nH]cc2CN(C)CCN)cc1", "note": "[MS-023]", "values": [
      {"measurement": "in vivo T cell proliferation or activation in response to alloantigen", "setting": "donor T cells", "value": "minimal impairment"},
      {"measurement": "histologic inflammation or immune infiltrates in skin, lung, gut, or liver", "setting": "[1]", "value": "did not result in overt histologic inflammation"},
      {"measurement": "ability of OT-1 T cells to degranulate intracellular cytolytic molecules", "setting": "OT-1 T cells", "value": "did not inhibit"},
      {"measurement": "CD8^+ T cell proliferation vs DMSO- or no lysate-pulsed control BMDCs", "setting": "[2]", "value": "more strongly promoted CD8^+ T cell proliferation"},
      {"measurement": "T cell apoptosis and activation markers", "setting": "CD5^+ splenic T cells", "value": "much milder effects"}
    ]},
    {"smiles": "NS(=O)(=O)c1ccc(S(=O)(=O)Nc2cccc3c(Cl)c[nH]c23)cc1", "note": "[indisulam]", "values": [
      {"measurement": "lymphocytes, neutrophils, or other peripheral blood counts", "setting": "[3]", "value": "negligible effects"},
      {"measurement": "in vivo T cell proliferation or activation in response to alloantigen", "setting": "donor T cells", "value": "minimal impairment"},
      {"measurement": "histologic inflammation or immune infiltrates in skin, lung, gut, or liver", "setting": "[1]", "value": "did not result in overt histologic inflammation"},
      {"measurement": "ability of OT-1 T cells to degranulate intracellular cytolytic molecules", "setting": "OT-1 T cells", "value": "did not inhibit"},
      {"measurement": "CD8^+ T cell proliferation vs DMSO- or no lysate-pulsed control BMDCs", "setting": "[2]", "value": "more strongly promoted CD8^+ T cell proliferation"},
      {"measurement": "T cell apoptosis and activation markers", "setting": "CD5^+ splenic T cells", "value": "much milder effects"},
      {"measurement": "IC50", "setting": "CD5^+ splenic T cells; Mus musculus, T-cell, 72 h, three days of continuous drug exposure, read-out: IC50 values, T cell proliferation following stimulation", "value": "1 to 10", "unit": "µM"}
    ]}
  ]
}
